According to ChEMBL document CHEMBL1201862, “PubChem BioAssay data set” (2004):
The source made the active and inactive calls.

Key:
[1] = target: T1, Histone-lysine N-methyltransferase NSD2 (Homo sapiens, UniProt O96028); assay type: biochemical
T1 sequence (O96028 whole entry): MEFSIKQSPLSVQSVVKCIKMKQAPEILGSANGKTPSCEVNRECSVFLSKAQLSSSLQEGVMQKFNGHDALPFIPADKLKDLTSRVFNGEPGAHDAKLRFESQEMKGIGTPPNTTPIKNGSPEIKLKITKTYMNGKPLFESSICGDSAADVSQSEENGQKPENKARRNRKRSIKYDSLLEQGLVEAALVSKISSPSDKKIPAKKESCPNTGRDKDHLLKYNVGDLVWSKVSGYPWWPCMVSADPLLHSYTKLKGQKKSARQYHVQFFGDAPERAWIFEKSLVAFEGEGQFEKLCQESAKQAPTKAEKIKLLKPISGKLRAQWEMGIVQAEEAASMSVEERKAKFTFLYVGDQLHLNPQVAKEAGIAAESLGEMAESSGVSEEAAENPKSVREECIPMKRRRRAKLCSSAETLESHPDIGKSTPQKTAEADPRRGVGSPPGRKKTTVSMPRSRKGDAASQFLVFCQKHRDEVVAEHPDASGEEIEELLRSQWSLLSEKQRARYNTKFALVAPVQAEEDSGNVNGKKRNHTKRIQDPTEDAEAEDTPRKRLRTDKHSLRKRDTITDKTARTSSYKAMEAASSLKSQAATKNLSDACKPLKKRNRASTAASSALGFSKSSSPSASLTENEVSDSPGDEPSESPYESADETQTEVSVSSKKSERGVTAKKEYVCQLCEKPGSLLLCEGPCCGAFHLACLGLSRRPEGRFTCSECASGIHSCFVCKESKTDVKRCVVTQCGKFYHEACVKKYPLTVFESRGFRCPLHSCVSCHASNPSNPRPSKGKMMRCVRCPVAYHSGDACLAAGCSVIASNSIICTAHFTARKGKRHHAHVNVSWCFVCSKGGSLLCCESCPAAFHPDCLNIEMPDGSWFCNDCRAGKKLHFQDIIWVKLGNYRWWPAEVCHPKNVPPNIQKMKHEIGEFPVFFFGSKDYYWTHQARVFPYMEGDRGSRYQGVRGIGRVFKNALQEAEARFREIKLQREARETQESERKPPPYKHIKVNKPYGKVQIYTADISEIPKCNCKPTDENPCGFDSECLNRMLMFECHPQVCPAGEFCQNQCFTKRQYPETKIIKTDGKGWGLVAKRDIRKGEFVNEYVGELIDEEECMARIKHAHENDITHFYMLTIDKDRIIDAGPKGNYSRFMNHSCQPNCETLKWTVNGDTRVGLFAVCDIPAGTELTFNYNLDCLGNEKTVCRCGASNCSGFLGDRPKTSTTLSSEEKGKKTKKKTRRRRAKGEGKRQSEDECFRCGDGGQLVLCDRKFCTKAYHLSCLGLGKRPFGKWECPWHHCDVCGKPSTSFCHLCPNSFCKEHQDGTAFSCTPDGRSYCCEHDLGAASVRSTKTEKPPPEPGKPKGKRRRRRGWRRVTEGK

[2] = target: T2, Apoptotic protease-activating factor 1 (Homo sapiens, UniProt O14727); assay type: functional
T2 sequence (O14727 whole entry): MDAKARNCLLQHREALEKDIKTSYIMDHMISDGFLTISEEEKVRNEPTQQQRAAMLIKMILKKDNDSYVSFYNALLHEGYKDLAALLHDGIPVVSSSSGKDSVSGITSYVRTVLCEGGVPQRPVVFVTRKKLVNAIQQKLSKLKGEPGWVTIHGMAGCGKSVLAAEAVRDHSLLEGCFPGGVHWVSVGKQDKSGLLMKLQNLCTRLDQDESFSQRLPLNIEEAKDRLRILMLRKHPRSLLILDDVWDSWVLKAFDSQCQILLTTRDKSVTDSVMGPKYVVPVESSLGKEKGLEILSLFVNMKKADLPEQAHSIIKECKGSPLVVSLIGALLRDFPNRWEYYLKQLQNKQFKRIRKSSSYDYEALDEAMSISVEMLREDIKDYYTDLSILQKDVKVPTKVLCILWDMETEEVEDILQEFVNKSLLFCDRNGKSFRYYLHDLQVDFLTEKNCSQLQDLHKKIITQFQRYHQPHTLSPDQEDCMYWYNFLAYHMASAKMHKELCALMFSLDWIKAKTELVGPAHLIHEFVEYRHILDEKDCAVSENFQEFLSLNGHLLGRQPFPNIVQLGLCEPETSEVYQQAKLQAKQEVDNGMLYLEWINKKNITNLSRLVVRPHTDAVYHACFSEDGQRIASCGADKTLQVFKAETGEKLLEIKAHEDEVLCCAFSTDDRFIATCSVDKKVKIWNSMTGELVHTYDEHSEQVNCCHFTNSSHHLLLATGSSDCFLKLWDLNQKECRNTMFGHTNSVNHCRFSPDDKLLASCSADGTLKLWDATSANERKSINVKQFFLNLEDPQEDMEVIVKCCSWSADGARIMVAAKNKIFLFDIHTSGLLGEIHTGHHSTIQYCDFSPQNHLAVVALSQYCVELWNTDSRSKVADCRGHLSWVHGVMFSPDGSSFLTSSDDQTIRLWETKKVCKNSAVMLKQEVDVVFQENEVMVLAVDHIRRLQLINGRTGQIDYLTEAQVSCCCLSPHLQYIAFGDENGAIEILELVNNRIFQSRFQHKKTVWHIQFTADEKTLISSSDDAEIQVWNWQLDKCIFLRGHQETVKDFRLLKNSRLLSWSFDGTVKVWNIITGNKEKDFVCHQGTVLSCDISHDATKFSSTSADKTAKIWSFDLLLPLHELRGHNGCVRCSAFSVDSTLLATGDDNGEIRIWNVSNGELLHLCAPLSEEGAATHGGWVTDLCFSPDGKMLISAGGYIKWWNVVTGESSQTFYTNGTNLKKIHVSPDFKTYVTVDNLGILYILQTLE

Compound | AC50 [1] | IC50 [2]
O=C(CCN1C(=O)/C(=C\c2ccco2)SC1=S)Nc1ccc(C(=O)O)c(O)c1 | 13.8 µM (active) | –
Oc1nc(Nc2ccccc2Cl)cc2ccccc12 | – | 6.11 µM (active)
O=C1C=C(c2c(O)ccc3ccccc23)c2ccccc2C1=O | 1.7 µM (active) | –
Cc1nc2c(=O)n(C)c(=O)nc-2n(C)n1 | – | 0.0375 µM (active)
